Experimental data taken from PubChem BioAssay (NCI).
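Compound exposure: 48 hours, 5 concentrations, 96-well plates. TGI: total growth inhibition.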

Tests used:
Experiment in all cases: inhibition of tumour cell growth, NCI panel, 48 h
MDA-N = tested on: MDA-N
COLO 205 colon = tested on: COLO 205 colon
NCI-H23 lung = tested on: NCI-H23 lung
CAKI-1 renal = tested on: CAKI-1 renal
RXF 393 renal = tested on: RXF 393 renal
ACHN renal = tested on: ACHN renal
MALME-3M melanoma = tested on: MALME-3M melanoma
SF-539 CNS = tested on: SF-539 CNS
SR leukemia = tested on: SR leukemia
PC-3 prostate = tested on: PC-3 prostate
UO-31 renal = tested on: UO-31 renal
SF-268 CNS = tested on: SF-268 CNS
OVCAR-4 ovarian = tested on: OVCAR-4 ovarian
LOX IMVI melanoma = tested on: LOX IMVI melanoma
NCI/ADR-RES ovarian = tested on: NCI/ADR-RES ovarian
IGROV1 ovarian = tested on: IGROV1 ovarian
NCI-H460 lung = tested on: NCI-H460 lung
A498 renal = tested on: A498 renal
HS 578T breast = tested on: HS 578T breast
SK-MEL-2 melanoma = tested on: SK-MEL-2 melanoma
OVCAR-8 ovarian = tested on: OVCAR-8 ovarian
RPMI-8226 leukemia = tested on: RPMI-8226 leukemia
SK-MEL-28 melanoma = tested on: SK-MEL-28 melanoma
MOLT-4 leukemia = tested on: MOLT-4 leukemia
HL-60(TB) leukemia = tested on: HL-60(TB) leukemia
U251 CNS = tested on: U251 CNS
DU-145 prostate = tested on: DU-145 prostate
UACC-257 melanoma = tested on: UACC-257 melanoma
A549 NSCLC = tested on: A549 NSCLC
NCI-H522 lung = tested on: NCI-H522 lung
TK-10 renal = tested on: TK-10 renal
SNB-19 CNS = tested on: SNB-19 CNS
KM12 colon = tested on: KM12 colon
HCT-116 colon = tested on: HCT-116 colon
786-0 renal = tested on: 786-0 renal
CCRF-CEM leukemia = tested on: CCRF-CEM leukemia
EKVX NSCLC = tested on: EKVX NSCLC
SF-295 CNS = tested on: SF-295 CNS
UACC-62 melanoma = tested on: UACC-62 melanoma
HOP-62 NSCLC = tested on: HOP-62 NSCLC
HOP-92 NSCLC = tested on: HOP-92 NSCLC
T-47D breast = tested on: T-47D breast
SNB-75 CNS = tested on: SNB-75 CNS
K-562 leukemia = tested on: K-562 leukemia
SN12C renal = tested on: SN12C renal
SK-MEL-5 melanoma = tested on: SK-MEL-5 melanoma
HT29 colon = tested on: HT29 colon
SK-OV-3 ovarian = tested on: SK-OV-3 ovarian
MDA-MB-435 = tested on: MDA-MB-435
MDA-MB-231 breast = tested on: MDA-MB-231 breast
SW-620 colon = tested on: SW-620 colon
HCC-2998 colon = tested on: HCC-2998 colon
NCI-H226 lung = tested on: NCI-H226 lung
OVCAR-5 ovarian = tested on: OVCAR-5 ovarian
HCT-15 colon = tested on: HCT-15 colon
OVCAR-3 ovarian = tested on: OVCAR-3 ovarian
MCF7 breast = tested on: MCF7 breast
BT-549 breast = tested on: BT-549 breast
M14 melanoma = tested on: M14 melanoma

Molecule CN=C(Nc1cccc(C(F)(F)F)c1)SCc1ccc(N=C=S)cc1 has a TGI (MDA-N) of 28 µM, a TGI (COLO 205 colon) of 30.6 µM and a TGI (NCI-H23 lung) of 31.4 µM. For the same molecule, the TGI (CAKI-1 renal) was 30.4 µM, the TGI (RXF 393 renal) was 29.3 µM and the TGI (ACHN renal) was 28.7 µM. For the same molecule, the TGI (MALME-3M melanoma) was 27.8 µM, the TGI (SF-539 CNS) was 31.5 µM and the TGI (SR leukemia) was 40.4 µM. For the same molecule, the TGI (PC-3 prostate) was 29.4 µM, the TGI (UO-31 renal) was 28.4 µM and the TGI (SF-268 CNS) was 73.3 µM. The TGI (OVCAR-4 ovarian) was 26.8 µM, the TGI (LOX IMVI melanoma) was 18.4 µM and the TGI (NCI/ADR-RES ovarian) was 61.3 µM. For the same molecule, the TGI (IGROV1 ovarian) was 32.8 µM, the TGI (NCI-H460 lung) was 26.4 µM and the TGI (A498 renal) was 34.6 µM. The TGI (HS 578T breast) was 54.2 µM, the TGI (SK-MEL-2 melanoma) was 25.6 µM and the TGI (OVCAR-8 ovarian) was 40.7 µM. The TGI (RPMI-8226 leukemia) was 45.8 µM, the TGI (SK-MEL-28 melanoma) was 48.9 µM and the TGI (MOLT-4 leukemia) was 36 µM. The TGI (HL-60(TB) leukemia) was over 100 µM, the TGI (U251 CNS) was 29.8 µM and the TGI (DU-145 prostate) was 31.2 µM. It also gave a TGI (UACC-257 melanoma) of 27.3 µM, a TGI (A549 NSCLC) of 37.5 µM and a TGI (NCI-H522 lung) of 22.4 µM. The TGI (TK-10 renal) was 23.5 µM, the TGI (SNB-19 CNS) was 28.1 µM and the TGI (KM12 colon) was 29.3 µM. It also gave a TGI (HCT-116 colon) of 29 µM, a TGI (786-0 renal) of 31 µM and a TGI (CCRF-CEM leukemia) of over 100 µM. It also gave a TGI (EKVX NSCLC) of 45.1 µM, a TGI (SF-295 CNS) of 30.2 µM and a TGI (UACC-62 melanoma) of 24.6 µM. For the same molecule, the TGI (HOP-62 NSCLC) was 31.7 µM, the TGI (HOP-92 NSCLC) was 30.5 µM and the TGI (T-47D breast) was 29.9 µM. The TGI (SNB-75 CNS) was 28 µM, the TGI (K-562 leukemia) was over 100 µM and the TGI (SN12C renal) was 26.9 µM. For the same molecule, the TGI (SK-MEL-5 melanoma) was 30.1 µM, the TGI (HT29 colon) was 31.2 µM and the TGI (SK-OV-3 ovarian) was 34.5 µM. For the same molecule, the TGI (MDA-MB-435) was 27 µM, the TGI (MDA-MB-231 breast) was 32.3 µM and the TGI (SW-620 colon) was 41 µM. The TGI (HCC-2998 colon) was 29 µM, the TGI (NCI-H226 lung) was 45 µM and the TGI (OVCAR-5 ovarian) was 30.2 µM. It also gave a TGI (HCT-15 colon) of 20.8 µM.

CC(=O)OCC1OC(OCCCOP(=S)(OCCC#N)OCC2OC(n3ccc(N)nc3=O)C(OC(=O)c3ccccc3)C2OC(=O)c2ccccc2)C(OC(C)=O)C(OC(C)=O)C1OC(C)=O (stereo not drawn) was tested, and the TGI (MDA-N) was over 100 µM, the TGI (COLO 205 colon) was over 100 µM and the TGI (NCI-H23 lung) was over 100 µM. For the same molecule, the TGI (CAKI-1 renal) was over 100 µM, the TGI (RXF 393 renal) was over 100 µM and the TGI (ACHN renal) was over 100 µM. The TGI (MALME-3M melanoma) was over 100 µM, the TGI (SF-539 CNS) was over 100 µM and the TGI (SR leukemia) was over 100 µM. It also gave a TGI (PC-3 prostate) of over 100 µM, a TGI (OVCAR-3 ovarian) of over 100 µM and a TGI (UO-31 renal) of over 100 µM. It also gave a TGI (SF-268 CNS) of over 100 µM, a TGI (OVCAR-4 ovarian) of over 100 µM and a TGI (LOX IMVI melanoma) of over 100 µM. The TGI (NCI/ADR-RES ovarian) was over 100 µM, the TGI (IGROV1 ovarian) was over 100 µM and the TGI (NCI-H460 lung) was over 100 µM. For the same molecule, the TGI (A498 renal) was over 100 µM, the TGI (HS 578T breast) was over 100 µM and the TGI (SK-MEL-2 melanoma) was over 100 µM. It also gave a TGI (OVCAR-8 ovarian) of over 100 µM, a TGI (RPMI-8226 leukemia) of over 100 µM and a TGI (SK-MEL-28 melanoma) of over 100 µM. It also gave a TGI (MOLT-4 leukemia) of over 100 µM, a TGI (U251 CNS) of over 100 µM and a TGI (MCF7 breast) of over 100 µM. It also gave a TGI (DU-145 prostate) of over 100 µM, a TGI (UACC-257 melanoma) of over 100 µM and a TGI (A549 NSCLC) of over 100 µM. The TGI (NCI-H522 lung) was over 100 µM, the TGI (TK-10 renal) was over 100 µM and the TGI (SNB-19 CNS) was over 100 µM. For the same molecule, the TGI (KM12 colon) was over 100 µM, the TGI (BT-549 breast) was over 100 µM and the TGI (HCT-116 colon) was over 100 µM. The TGI (786-0 renal) was over 100 µM, the TGI (CCRF-CEM leukemia) was over 100 µM and the TGI (EKVX NSCLC) was over 100 µM. The TGI (SF-295 CNS) was over 100 µM, the TGI (M14 melanoma) was over 100 µM and the TGI (UACC-62 melanoma) was over 100 µM. For the same molecule, the TGI (HOP-62 NSCLC) was over 100 µM, the TGI (HOP-92 NSCLC) was over 100 µM and the TGI (T-47D breast) was over 100 µM. It also gave a TGI (SNB-75 CNS) of over 100 µM, a TGI (K-562 leukemia) of over 100 µM and a TGI (SN12C renal) of over 100 µM. It also gave a TGI (SK-MEL-5 melanoma) of over 100 µM, a TGI (HT29 colon) of over 100 µM and a TGI (SK-OV-3 ovarian) of over 100 µM. It also gave a TGI (MDA-MB-435) of over 100 µM, a TGI (MDA-MB-231 breast) of over 100 µM and a TGI (SW-620 colon) of over 100 µM. The TGI (HCC-2998 colon) was over 100 µM, the TGI (NCI-H226 lung) was over 100 µM and the TGI (OVCAR-5 ovarian) was over 100 µM. For the same molecule, the TGI (HCT-15 colon) was over 100 µM.

Molecule COc1cc2c3c([nH]c2c(OC)c1OC)CCN(Cc1ccccc1)C3 has a TGI (MDA-N) of 33.9 µM, a TGI (COLO 205 colon) of 32 µM and a TGI (NCI-H23 lung) of over 100 µM. The TGI (CAKI-1 renal) was over 100 µM, the TGI (RXF 393 renal) was over 100 µM and the TGI (ACHN renal) was over 100 µM. The TGI (MALME-3M melanoma) was 38.1 µM, the TGI (SF-539 CNS) was 38.5 µM and the TGI (PC-3 prostate) was over 100 µM. It also gave a TGI (OVCAR-3 ovarian) of over 100 µM, a TGI (SF-268 CNS) of over 100 µM and a TGI (OVCAR-4 ovarian) of over 100 µM. For the same molecule, the TGI (LOX IMVI melanoma) was 32.1 µM, the TGI (NCI/ADR-RES ovarian) was over 100 µM and the TGI (IGROV1 ovarian) was over 100 µM. It also gave a TGI (NCI-H460 lung) of 63.5 µM, a TGI (A498 renal) of 72.3 µM and a TGI (HS 578T breast) of over 100 µM. The TGI (SK-MEL-2 melanoma) was 47.1 µM, the TGI (OVCAR-8 ovarian) was over 100 µM and the TGI (RPMI-8226 leukemia) was 52.5 µM. For the same molecule, the TGI (SK-MEL-28 melanoma) was 50.5 µM, the TGI (MOLT-4 leukemia) was over 100 µM and the TGI (HL-60(TB) leukemia) was over 100 µM. It also gave a TGI (U251 CNS) of 87.4 µM, a TGI (MCF7 breast) of 41.8 µM and a TGI (DU-145 prostate) of over 100 µM. It also gave a TGI (UACC-257 melanoma) of 40 µM, a TGI (A549 NSCLC) of over 100 µM and a TGI (NCI-H522 lung) of over 100 µM. The TGI (TK-10 renal) was 78.9 µM, the TGI (SNB-19 CNS) was over 100 µM and the TGI (KM12 colon) was over 100 µM. The TGI (HCT-116 colon) was over 100 µM, the TGI (786-0 renal) was over 100 µM and the TGI (CCRF-CEM leukemia) was over 100 µM. For the same molecule, the TGI (EKVX NSCLC) was over 100 µM, the TGI (SF-295 CNS) was over 100 µM and the TGI (M14 melanoma) was 30 µM. For the same molecule, the TGI (UACC-62 melanoma) was over 100 µM, the TGI (HOP-62 NSCLC) was over 100 µM and the TGI (HOP-92 NSCLC) was 41.5 µM. The TGI (T-47D breast) was 68.6 µM, the TGI (SNB-75 CNS) was over 100 µM and the TGI (K-562 leukemia) was 84.2 µM. It also gave a TGI (SN12C renal) of over 100 µM, a TGI (SK-MEL-5 melanoma) of 34.9 µM and a TGI (HT29 colon) of 49.9 µM. It also gave a TGI (MDA-MB-435) of 35 µM, a TGI (MDA-MB-231 breast) of over 100 µM and a TGI (SW-620 colon) of over 100 µM. It also gave a TGI (HCC-2998 colon) of 34.6 µM, a TGI (NCI-H226 lung) of over 100 µM and a TGI (OVCAR-5 ovarian) of over 100 µM. For the same molecule, the TGI (HCT-15 colon) was over 100 µM.
